{"source": "patent US20040043920A1", "about": "“Compound for chelating a metal, radiopharmaceutical, manufacturing process therefor, and diagnostic kit” (priority 2000, published 2004)", "key": {"[1]": {"test": "Brain distribution in the rat: crossing of the blood-brain barrier and striatum/cerebellum ratio", "assay_type": "in vivo", "description": "The model chosen is the rat. Depending on the compounds, we performed one or two sacrifice times (30 minutes or 1 hour).\nAt the times chosen, the brains were removed and the areas of interest were isolated and counted.\nthe crossing of the blood-brain barrier by the compound under consideration,\na striatum/cerebellum ratio."}, "[2]": {"test": "HPLC analysis of rats' urine for unchanged complex", "assay_type": "in vivo, rat", "conditions": "rats' urine collected 1 hour 30 minutes after injection", "description": "(§1) The molecule was radiolabelled as described in Example (29). The radiolabelled compound is then isolated by HPLC, evaporated and taken up in 0.9% saline medium. The bioavailability in rats gives the following results (see Table 1):\nThe rats' urine was collected 1 hour 30 minutes after injection and analysed by HPLC. The result of this analysis is 87% of unchanged complex."}, "[3]": {"test": "Bioavailability (biodistribution) of radiolabelled Lys-Lys bis-dithiocarbamate in rats", "assay_type": "in vivo", "conditions": "rat", "description": "as §1\ntime 30 minutes and 60 minutes: 3 animals per point,\ntime 3 hours: 2 animals per point,\ntime 24 hours: 1 animal per point.\nThe results are expressed as a percentage of dose injected per organ."}}, "data": [{"smiles": "Cc1ccc(C2CC3CCC(C2COC(=O)C2CCCCNC(=S)[S][Tc](#[N])[S]C(=S)NCCCCC(=O)N2)N3C)cc1", "note": "(centres unmarked) [Compound 52]", "values": [{"measurement": "Biodistribution: cerebellum", "setting": "[1]; 30′", "result": "30′: cerebellum: 0.114%"}, {"measurement": "Biodistribution: crossing of blood-brain barrier", "setting": "[1]; 30′", "result": "barrier: 0.358%"}, {"measurement": "Biodistribution: striatum", "setting": "[1]; 30′", "result": "striatum: 0.133%"}, {"measurement": "S/C (striatum/cerebellum ratio)", "setting": "[1]; 30′", "result": 1.17}, {"measurement": "Biodistribution: cerebellum", "setting": "[1]; 1 h", "result": "1 h: cerebellum: 0.065%"}, {"measurement": "Biodistribution: crossing of blood-brain barrier", "setting": "[1]; 1 h", "result": "barrier: 0.182%"}, {"measurement": "Biodistribution: striatum", "setting": "[1]; 1 h", "result": "striatum: 0.064%"}, {"measurement": "S/C (striatum/cerebellum ratio)", "setting": "[1]; 1 h", "result": 0.98}]}, {"smiles": "NC(CCCCNC(=S)S)C(=O)NC(CCCCNC(=S)S)C(=O)O", "note": "(centres unmarked) [Lys-Lys Bis-Dithiocarbamate]", "values": [{"measurement": "unchanged complex in urine", "setting": "[2]", "result": 87, "unit": "%"}, {"measurement": "percentage of dose injected per organ, adrenals", "setting": "[3]; 30 min", "result": "0.02 percentage of dose injected per organ"}, {"measurement": "percentage of dose injected per organ, adrenals", "setting": "[3]; 1 h", "result": "0.01 percentage of dose injected per organ"}, {"measurement": "percentage of dose injected per organ, adrenals", "setting": "[3]; 3 h", "result": "0.01 percentage of dose injected per organ"}, {"measurement": "percentage of dose injected per organ, adrenals", "setting": "[3]; 24 h", "result": "0.00 percentage of dose injected per organ"}, {"measurement": "percentage of dose injected per organ, bladder", "setting": "[3]; 30 min", "result": "0.47 percentage of dose injected per organ"}, {"measurement": "percentage of dose injected per organ, bladder", "setting": "[3]; 1 h", "result": "0.32 percentage of dose injected per organ"}, {"measurement": "percentage of dose injected per organ, bladder", "setting": "[3]; 3 h", "result": "0.05 percentage of dose injected per organ"}, {"measurement": "percentage of dose injected per organ, bladder", "setting": "[3]; 24 h", "result": "0.01 percentage of dose injected per organ"}, {"measurement": "percentage of dose injected per organ, blood", "setting": "[3]; 30 min", "result": "0.67 percentage of dose injected per organ"}, {"measurement": "percentage of dose injected per organ, blood", "setting": "[3]; 1 h", "result": "0.34 percentage of dose injected per organ"}, {"measurement": "percentage of dose injected per organ, blood", "setting": "[3]; 3 h", "result": "0.20 percentage of dose injected per organ"}, {"measurement": "percentage of dose injected per organ, blood", "setting": "[3]; 24 h", "result": "0.11 percentage of dose injected per organ"}, {"measurement": "percentage of dose injected per organ, brain", "setting": "[3]; 30 min", "result": "0.03 percentage of dose injected per organ"}, {"measurement": "percentage of dose injected per organ, brain", "setting": "[3]; 1 h", "result": "0.01 percentage of dose injected per organ"}, {"measurement": "percentage of dose injected per organ, brain", "setting": "[3]; 3 h", "result": "0.01 percentage of dose injected per organ"}, {"measurement": "percentage of dose injected per organ, brain", "setting": "[3]; 24 h", "result": "0.01 percentage of dose injected per organ"}, {"measurement": "percentage of dose injected per organ, caecum", "setting": "[3]; 30 min", "result": "0.31 percentage of dose injected per organ"}, {"measurement": "percentage of dose injected per organ, caecum", "setting": "[3]; 1 h", "result": "0.18 percentage of dose injected per organ"}, {"measurement": "percentage of dose injected per organ, caecum", "setting": "[3]; 3 h", "result": "0.11 percentage of dose injected per organ"}, {"measurement": "percentage of dose injected per organ, caecum", "setting": "[3]; 24 h", "result": "0.66 percentage of dose injected per organ"}, {"measurement": "percentage of dose injected per organ, colon", "setting": "[3]; 30 min", "result": "0.46 percentage of dose injected per organ"}, {"measurement": "percentage of dose injected per organ, colon", "setting": "[3]; 1 h", "result": "0.23 percentage of dose injected per organ"}, {"measurement": "percentage of dose injected per organ, colon", "setting": "[3]; 3 h", "result": "0.19 percentage of dose injected per organ"}, {"measurement": "percentage of dose injected per organ, colon", "setting": "[3]; 24 h", "result": "0.87 percentage of dose injected per organ"}, {"measurement": "percentage of dose injected per organ, heart", "setting": "[3]; 30 min", "result": "0.21 percentage of dose injected per organ"}, {"measurement": "percentage of dose injected per organ, heart", "setting": "[3]; 1 h", "result": "0.10 percentage of dose injected per organ"}, {"measurement": "percentage of dose injected per organ, heart", "setting": "[3]; 3 h", "result": "0.06 percentage of dose injected per organ"}, {"measurement": "percentage of dose injected per organ, heart", "setting": "[3]; 24 h", "result": "0.03 percentage of dose injected per organ"}, {"measurement": "percentage of dose injected per organ, intestine", "setting": "[3]; 30 min", "result": "20.55 percentage of dose injected per organ"}, {"measurement": "percentage of dose injected per organ, intestine", "setting": "[3]; 1 h", "result": "32.92 percentage of dose injected per organ"}, {"measurement": "percentage of dose injected per organ, intestine", "setting": "[3]; 3 h", "result": "51.4 percentage of dose injected per organ"}, {"measurement": "percentage of dose injected per organ, intestine", "setting": "[3]; 24 h", "result": "0.49 percentage of dose injected per organ"}, {"measurement": "percentage of dose injected per organ, kidneys", "setting": "[3]; 30 min", "result": "4.55 percentage of dose injected per organ"}, {"measurement": "percentage of dose injected per organ, kidneys", "setting": "[3]; 1 h", "result": "4.18 percentage of dose injected per organ"}, {"measurement": "percentage of dose injected per organ, kidneys", "setting": "[3]; 3 h", "result": "3.87 percentage of dose injected per organ"}, {"measurement": "percentage of dose injected per organ, kidneys", "setting": "[3]; 24 h", "result": "2.65 percentage of dose injected per organ"}, {"measurement": "percentage of dose injected per organ, liver", "setting": "[3]; 30 min", "result": "14.38 percentage of dose injected per organ"}, {"measurement": "percentage of dose injected per organ, liver", "setting": "[3]; 1 h", "result": "9.08 percentage of dose injected per organ"}, {"measurement": "percentage of dose injected per organ, liver", "setting": "[3]; 3 h", "result": "3.84 percentage of dose injected per organ"}, {"measurement": "percentage of dose injected per organ, liver", "setting": "[3]; 24 h", "result": "1.33 percentage of dose injected per organ"}, {"measurement": "percentage of dose injected per organ, lungs", "setting": "[3]; 30 min", "result": "0.43 percentage of dose injected per organ"}, {"measurement": "percentage of dose injected per organ, lungs", "setting": "[3]; 1 h", "result": "0.28 percentage of dose injected per organ"}, {"measurement": "percentage of dose injected per organ, lungs", "setting": "[3]; 3 h", "result": "0.15 percentage of dose injected per organ"}, {"measurement": "percentage of dose injected per organ, lungs", "setting": "[3]; 24 h", "result": "0.08 percentage of dose injected per organ"}, {"measurement": "percentage of dose injected per organ, spleen", "setting": "[3]; 30 min", "result": "0.13 percentage of dose injected per organ"}, {"measurement": "percentage of dose injected per organ, spleen", "setting": "[3]; 1 h", "result": "0.09 percentage of dose injected per organ"}, {"measurement": "percentage of dose injected per organ, spleen", "setting": "[3]; 3 h", "result": "0.05 percentage of dose injected per organ"}, {"measurement": "percentage of dose injected per organ, spleen", "setting": "[3]; 24 h", "result": "0.04 percentage of dose injected per organ"}, {"measurement": "percentage of dose injected per organ, stomach", "setting": "[3]; 30 min", "result": "8.24 percentage of dose injected per organ"}, {"measurement": "percentage of dose injected per organ, stomach", "setting": "[3]; 1 h", "result": "3.36 percentage of dose injected per organ"}, {"measurement": "percentage of dose injected per organ, stomach", "setting": "[3]; 3 h", "result": "2.64 percentage of dose injected per organ"}, {"measurement": "percentage of dose injected per organ, stomach", "setting": "[3]; 24 h", "result": "0.08 percentage of dose injected per organ"}, {"measurement": "percentage of dose injected per organ, urine", "setting": "[3]; 30 min", "result": "14.39 percentage of dose injected per organ"}, {"measurement": "percentage of dose injected per organ, urine", "setting": "[3]; 1 h", "result": "14.70 percentage of dose injected per organ"}, {"measurement": "percentage of dose injected per organ, urine", "setting": "[3]; 3 h", "result": "0.44 percentage of dose injected per organ"}, {"measurement": "percentage of dose injected per organ, urine", "setting": "[3]; 24 h", "result": "0.05 percentage of dose injected per organ"}]}]}
